How the values were obtained:
Experiment in all cases: Qualitative dye staining on agarose pads (EVOS M7000)
Type in all cases: cell-based
Parameters in all cases: key to Relative fluorescent intensity: Very high: If the cells looked twice as big in the fluorescent channel, it was marked as having “very high” relative fluorescent intensity; High: if the cells looked bigger in the fluorescent channel, it was marked as having “high” relative fluorescent intensity; Medium: If the cells looked almost the same size in the fluorescent channel and the bright field, it was marked as having “medium” relative fluorescent intensity; Low: If the cells looked smaller in the fluorescent channel as compared to the brightfield but still the whole cell was visible, it was marked as having “low” relative fluorescent intensity; Negligible: If only a few traces of a cell was visible in the fluorescent channel, it was marked as having “negligible” relative fluorescent intensity
Settings in all cases: DiSC3(5) 3 μM, SYBR Green I 10×, SYTO 13 3 μM, FM4-64 15 μM
Escherichia coli = system: Escherichia coli
Method: (§1) An overnight culture was prepared by inoculating a bacterial colony in approximately 5 ml of Urine and incubating the culture in an orbital shaker at 37° C.
(§2) The following media and materials were utilised: Cation-adjusted Mueller Hinton broth (MHB); Phosphate Buffered Saline (PBS); Membrane staining dye—FM4-64 (1.5 mM); Live cell staining dye—DiSC3(5) (1 mM); DNA staining dye—SYBR Green (1000×); DNA staining dye—SYTO 13 (0.5 mM); Ultrapure Agarose; Parafilm; Glass slides and coverslips; Scalpel; and EVOS M7000 fluorescent microscope.
(§3) A pre-cut parafilm or a coverslip was used as a guide and 22 mm×22 mm squares cut from parafilm. A square was cut out of the centre of the parafilm (approximately 10 mm×10 mm). The centre of the cut-out was discarded. Two parafilm gaskets were placed onto a cleaned glass slide. The glass slide was then placed on a dry bath set to 56° C. so that the parafilm adhered to the glass slide. The glass slide was then kept on the dry bath. Using a microwave, ultrapure agarose was dissolved in PBS at a concentration of 1.2%. The agarose solution was kept on a dry bath set at 56° C. 60 μl of the agarose solution was pipetted in the centre of the parafilm gaskets. A coverslip was then placed over the gaskets without applying pressure on the coverslip. The slide was then placed on a cool surface and left to solidify for 1-2 minutes. The coverslips were then gently lifted off the agarose pads.
(§4) In a first Eppendorf, 15 μl of FM4-64 and 6 μl of SYTO 13 was added and in a second Eppendorf 10 μl of SYBR Green and 3 μl of DiSC3(5) was added. Depending on the bacterial growth in urine, an appropriate concentration of the bacterial culture was placed in the two Eppendorfs (final bacterial concentration 10^6 CFU/ml). MHB was added so as to achieve a final volume of 1 ml. Final concentrations of the dyes in the sample was as follows: DiSC3(5): 3 μM; SYBR Green I: 10× (originally supplied as 10,000×); SYTO 13: 3 μM; and FM4-64: 15 μM
(§5) 4 μl of the contents of each Eppendorf were deposited on one agarose pad and the cells distributed across the agar surface by tilting the slide. The slide was left to dry for approximately 1 minute. A coverslip was then placed on top of the agarose pad. The slide was placed inside the microscope and incubated at 37° C. for 10 minutes. Using different light filters for each dye, an image of each pad at 40× magnification on an EVOS M7000 fluorescent microscope was captured. Eight images for each agarose pad was recorded (i.e. 8 each for brightfield and 2 fluorescent channels). For each agarose pad, 24 images were recorded. This corresponded to 48 images in total for each bacterial strain (2 agarose pads per strain). Table A below was used to take the images using the correct fluorescent channel and intensity (for imagining on any other instrument, the LED intensity will need to be normalised against the EVOS M7000).
(§6) To qualitatively calculate the relative fluorescent intensities, cell size was compared between brightfield and the fluorescent channel for a given fluorescent dye. If the cells are very fluorescent, they will appear bigger in the fluorescent channel as compared to the bright field. For our qualitative measurements, if the cells looked bigger in the fluorescent channel, it was marked as having “high” relative fluorescent intensity. If the cells looked twice as big in the fluorescent channel, it was marked as having “very high” relative fluorescent intensity. If the cells looked almost the same size in the fluorescent channel and the bright field, it was marked as having “medium” relative fluorescent intensity. If the cells looked smaller in the fluorescent channel as compared to the brightfield but still the whole cell was visible, it was marked as having “low” relative fluorescent intensity. If only a few traces of a cell was visible in the fluorescent channel, it was marked as having “negligible” relative fluorescent intensity.

Klebsiella oxytoca = system: Klebsiella oxytoca
Method: as §1, §2, §3, §4, §5, §6

Staphylococcus aureus = system: Staphylococcus aureus
Method: as §1, §2, §3, §4, §5, §6

[1] = Table 6 thresholds, Escherichia coli
[2] = Table 7 commercial strain E. coli SEC 27
[3] = Table 7 commercial strain E. coli SEC 93
[4] = Table 8 sample Escherichia coli (051)
[5] = Table 8 sample Escherichia coli (052)
[6] = Table 8 sample Escherichia coli (053)
[7] = Table 8 sample Klebsiella oxytoca (091)
[8] = Table 8 sample Klebsiella oxytoca (092)
[9] = Table 8 sample Klebsiella oxytoca (093)
[10] = Table 6 thresholds, Staphylococcus aureus
[11] = Table 7 commercial strain S. Aureus NCTC 9369
[12] = Table 7 commercial strain S. aureus NCTC 8532
[13] = Table 8 sample Staphylococcus aureus (041)
[14] = Table 8 sample Staphylococcus aureus (042)
[15] = Table 8 sample Staphylococcus aureus (043)

SMILES | Percentage of cells stained (Escherichia coli; [1]) | Relative fluorescent intensity (Escherichia coli; [1]) | Percentage of cells stained (Escherichia coli; [2]) | Relative fluorescent intensity (Escherichia coli; [2]) | Percentage of cells stained (Escherichia coli; [3]) | Relative fluorescent intensity (Escherichia coli; [3]) | Percentage of cells stained (Escherichia coli; [4]) | Relative fluorescent intensity (Escherichia coli; [4]) | Percentage of cells stained (Escherichia coli; [5]) | Relative fluorescent intensity (Escherichia coli; [5]) | Percentage of cells stained (Escherichia coli; [6]) | Relative fluorescent intensity (Escherichia coli; [6]) | Percentage of cells stained (Klebsiella oxytoca; [7]) | Relative fluorescent intensity (Klebsiella oxytoca; [7]) | Percentage of cells stained (Klebsiella oxytoca; [8]) | Relative fluorescent intensity (Klebsiella oxytoca; [8]) | Percentage of cells stained (Klebsiella oxytoca; [9]) | Relative fluorescent intensity (Klebsiella oxytoca; [9]) | Percentage of cells stained (Staphylococcus aureus; [10]) | Relative fluorescent intensity (Staphylococcus aureus; [10]) | also measured
CCCN1C(=CC=CC=Cc2sc3ccccc3[n+]2CCC)Sc2ccccc21.[I-] [DiSC3(5), 3,3′-Dipropylthiadicarbocyanine Iodide] | Almost all | Medium | Almost all | Medium | Almost all | Medium | Almost all | Medium | Almost all | Medium | Almost all | Medium | Almost all | Medium | Almost all | Low | Half | Low | Almost all | high and High | Percentage of cells stained (Staphylococcus aureus; [11]): Almost all; Relative fluorescent intensity (Staphylococcus aureus; [11]): High; Percentage of cells stained (Staphylococcus aureus; [12]): Almost all; Relative fluorescent intensity (Staphylococcus aureus; [12]): High; Percentage of cells stained (Staphylococcus aureus; [13]): Almost all; Relative fluorescent intensity (Staphylococcus aureus; [13]): High; Percentage of cells stained (Staphylococcus aureus; [14]): Almost all; Relative fluorescent intensity (Staphylococcus aureus; [14]): High; Percentage of cells stained (Staphylococcus aureus; [15]): Almost all; Relative fluorescent intensity (Staphylococcus aureus; [15]): High
CCN(CC)c1ccc(C=CC=CC=Cc2cc[n+](CCC[N+](CC)(CC)CC)cc2)cc1.[Br-].[Br-] [FM 4-64, N-(3-Triethylammoniumpropyl)-4-(6-(4-(Diethylamino) Phenyl) Hexatrienyl) Pyridinium Dibromide] | Almost all | Medium | Almost all | Medium | Almost all | Medium | Almost all | Medium | Almost all | Medium | Almost all | Medium | Few | Low | Almost all | Low | Half | Low | Almost all | Medium-high | Percentage of cells stained (Staphylococcus aureus; [11]): Almost all; Relative fluorescent intensity (Staphylococcus aureus; [11]): High; Percentage of cells stained (Staphylococcus aureus; [12]): Almost all; Relative fluorescent intensity (Staphylococcus aureus; [12]): Medium; Percentage of cells stained (Staphylococcus aureus; [13]): Almost all; Relative fluorescent intensity (Staphylococcus aureus; [13]): High; Percentage of cells stained (Staphylococcus aureus; [14]): Almost all; Relative fluorescent intensity (Staphylococcus aureus; [14]): Medium; Percentage of cells stained (Staphylococcus aureus; [15]): Almost all; Relative fluorescent intensity (Staphylococcus aureus; [15]): Medium
CCCN(CCCN(C)C)c1cc(/C=C2/Sc3ccccc3N2C)c2ccccc2[n+]1-c1ccccc1 [SYBR Green I, N′,N′-dimethyl-N-[4-[(E)-(3-methyl-1,3-benzothiazol-2-ylidene)methyl]-1-phenylquinolin-1-ium-2-yl]-N-propylpropane-1,3-diamine] | Almost all | Medium | Almost all | Medium | Almost all | Medium | Almost all | Medium | Almost all | Medium | Almost all | Medium | Almost all | Low | Almost all | Low | Half | Low | Almost all | high | Relative fluorescent intensity (Staphylococcus aureus; Table 6 thresholds, Staphylococcus aureus, listed as SYBR Green): High; Percentage of cells stained (Staphylococcus aureus; [11]): Almost all; Relative fluorescent intensity (Staphylococcus aureus; [11]): High; Percentage of cells stained (Staphylococcus aureus; [12]): Almost all; Relative fluorescent intensity (Staphylococcus aureus; [12]): High; Percentage of cells stained (Staphylococcus aureus; [13]): Almost all; Relative fluorescent intensity (Staphylococcus aureus; [13]): High; Percentage of cells stained (Staphylococcus aureus; [14]): Almost all; Relative fluorescent intensity (Staphylococcus aureus; [14]): High; Percentage of cells stained (Staphylococcus aureus; [15]): Almost all; Relative fluorescent intensity (Staphylococcus aureus; [15]): High
